Patent US20070156046A1, “Method of enriching hyperpolarized atom nuclei and an apparatus for implementing the method” (priority 2004, published 2007)

Legend:
[1] = solubility (Ostwald coefficient) of ^129Xe in toluol and ethanol depending on the temperature of the solvent; assay type: physicochemical; details: for increase of the density compared to the gas phase: 180° K; for density of ^129Xe compared with the gas phase: about 240° K
Procedure: Solubility is defined as the density of the hyperpolarized gas in the solvent relative to the density of the hyperpolarized gas in the gas chamber situated above a given temperature and pressure. The solubility is also referred to as the Ostwald coefficient.
An even higher solubility of ^129Xe in the solvent is obtained by cooling to temperatures of 180° K, thereby obtaining a 100-fold increase of the density in both toluol and ethanol compared to the gas phase. Further cooling by just a few degrees Kelvin already results in an increase of the Ostwald coefficient to a value of 200 (FIG. 2).

[2] = ^129Xe densities in the solvent in the two-stage enrichment apparatus; assay type: physicochemical; details: solvent toluol/ethanol
Procedure: A gas mixture 1 with hyperpolarized atomic nuclei flows from a polarizer (not shown) into a first chamber 2 containing a cooled solvent. Chamber 2 has means for cooling the solvent. The solvent containing the gas mixture is thereby cooled to-a temperature T1, of, e.g. 180° K.
The gas components are enriched in chamber 2 according to their solubility in the solvent, and thus separated from one another. The unnecessary components of the mixture are released through valve 3. The solvent enriched with the hyperpolarized atomic nuclei is guided through a connection line out of chamber 2 into a further chamber 5. Chamber 5 comprises means for degassing, such as an apparatus for producing ultrasound and/or heating.
Chamber 5 thus represents a degassing chamber 5 for the hyperpolarized atomic nuclei from the solvent. In chamber 5, a gas pressure of the originally dissolved gas arises due to the degassing of the hyperpolarized atomic nuclei via the solvent. The gas pressure is determined by the partial pressure of the hyperpolarized atomic nuclei (gas component) in solvent chamber 2, and the ratio of the solubilities of this gas component in the solvent at temperatures T1 in chamber 2 and T2 in chamber 5.
Following degassing in chamber 5, the solution and degassing process may be repeated, as represented in FIG. 2 by continuous lines. For this, starting from chamber 5 at the end of the first enrichment stage, the gas with the hyperpolarized atomic nuclei is guided into chamber 6, where it is cooled to the temperature T1. Following enrichment in the solvent, the gas is conducted into chamber 8 with a temperature of T2 for degassing. Chamber 8, again, has a sufficient volume.
The following ^129Xe densities in the solvent (toluol/ethanol) may be set at different temperatures: […]

increase of the density compared to the gas phase ([1]; in ethanol): 100 fold
density of ^129Xe compared with the gas phase ([1]; in ethanol): ten times higher
increase of the density compared to the gas phase ([1]; in toluol): 100 fold
density of ^129Xe compared with the gas phase ([1]; in toluol): ten times higher
Ostwald coefficient ([1]; solvent ethanol, standard conditions (293° K, 1 bar)): about 2.5
Ostwald coefficient ([1]; solvent toluol, standard conditions (293° K, 1 bar)): about 5
solubility or Ostwald coefficient compared to at room temperature ([1]; temperature of 273° K, toluol and ethanol (FIG. 1)): clear increase
Ostwald coefficient ([1]; toluol and ethanol, further cooling by a few degrees Kelvin below 180° K): 200
pXe, Sol, Stage 1 (Chamber 2) ([2]; T = 180°K): pXe, Sol −7.0 bar
pXe, Sol, Stage 2 (Chamber 6) ([2]; T = 180°K): ˜20 bar
pXe, Sol, Stage 1 (Chamber 2) ([2]; T = 200°K): pXe, Sol −2.1 bar
pXe, Sol, Stage 2 (Chamber 6) ([2]; T = 200°K): ˜10 bar
pXe, Sol, Stage 1 (Chamber 2) ([2]; T = 240°K): pXe, Sol −0.7 bar
pXe, Sol, Stage 2 (Chamber 6) ([2]; T = 240°K): ˜3.5 bar
SMILES: [Xe] [^129Xe, xenon]
